Assays:
[1] = test system: Arg; assay: Arg mRNA (RT-PCR) and protein (Western blot) levels; assay type: cell-based, human; settings: 40 μM α-TEA
Experimental: Arg (ABL2) expression data obtained from gene array analysis was further confirmed by RT-PCR and Western blot analyses. […] Unlike MDA-MB-435 cells, the MCF-7 cell line is an estrogen-receptor positive/estrogen responsive human breast cancer line (Klotz et al., 1995). However, both cell lines were induced to undergo apoptosis by α-TEA as assessed by PARP cleavage (FIG. 1B).
Whole-cell protein extracts were prepared as described previously (Yu et al., 1999), and 50 μg of protein was loaded per lane, separated using SDS-PAGE on a 10-15% gel under reducing conditions, and electroblotted onto a nitrocellulose membrane ([…] Optitran BA-S-supported nitrocellulose; Schleicher and Schuell, Keene, N.H.). Equal loading was verified using GAPDH antibody. Primary rabbit antibodies with specificity for PARP and primary goat antibody with specificity for Arg were purchased from Santa Cruz Biotechnology (Santa Cruz, Calif.). Horseradish peroxidase conjugated goat anti-rabbit or horseradish goat anti-mouse secondary antibody was purchased from Jackson Immunoresearch Laboratory (West Grove, Pa.). Horseradish peroxidase-conjugated donkey anti-goat serum was purchased from Santa Cruz Biotechnology. Immune complexes were visualized using enhanced chemiluminescence detection (Pierce Chemical Co., Rockford, Ill.). Fold differences in level of chemiluminescence were determined by densitometric analyses.
Total RNA was isolated from cells using RNeasy Protect Mini kit (Qiagen, Valencia, Calif.) according to manufacturer's instruction. Reverse transcription was performed as described above except using 15 μg of total RNA as template. […]
The double stranded small interfering RNA oligonucleotides specific for Arg and negative control siRNA (with no known homology to mammalian genes) were purchased from Ambion (siRNA ID #1478, Austin, Tex.). […] The cells were collected, lysed and the lysates were analyzed by immunoblotting (Western blot).

[2] = test system: human MDA-MB-435 breast cancer cells; settings: preclinical xenograft model transplanted with human MDA-MB-435 breast cancer cells (Zhang et al., 2004); cited from earlier work
[3] = test system: FOXO1; assay: FOXO1 phosphorylation and nuclear localization (Western blot, cell fractionation); assay type: cell-based, human; settings: LNCaP and PC-3-GFP cells
Excerpt: The transcription factor FOXO1 is a downstream substrate of Akt in which phosphorylation by Akt prevents its pro-apoptotic actions (Woods et al., 2002). Since previous studies of α-TEA's mechanism of action in inducing apoptosis in cancer cells show a role for Fas signaling (Shun et al., 2004) and since FOXO1 has been proposed to be a transcriptional regulator of FasL (Ciechomska et al., 2003), it was of interest to investigate the effects of α-TEA on FOXO1 phosphorylation status and cellular location. […] FOXO1 is normally localized in the nucleus (Woods et al., 2002) and phosphorylation of FOXO1 by Akt at Ser 256 promotes the relocation of FOXO1 from the nucleus to the cytosol, thereby inhibiting its transcriptional activity (Greer et al., 2005). As expected, control LNCaP and PC-3-GFP cells had high levels of FOXO1 in the cytosol reflecting the constitutively activated state of Akt in these cells (FIG. 7B).
Plasmids encoding wild type FOXO1 (Flag-tagged FOXO1) and constitutively active FOXO1 (Flag-tagged FOXO1AAA) were generous gifts from Dr. Kun-Liang Guan (Tang et al., 1999). FOXO1 and phospho-FOXO1 antibodies were purchased from Cell Signaling Technology (Beverly, Mass.).
Preparation of cytoplasmic and nuclear extracts for the foregoing experiments was carried-out using methods that are well known in the art. […]

For `Cc1c(C)c2c(c(C)c1OCC(=O)O)CC[C@@](C)(CCC[C@H](C)CCC[C@H](C)CCCC(C)C)O2` [α-TEA], which “up-regulation of Arg mRNA and protein levels” value ([1]; MCF-7 cells) is on record?
The value was “not in MCF-7 cells”.

What about the “peak Arg mRNA levels, fold of the vehicle (VEH) control” value ([1]; MDA-MB-435 cells, 24 h, RT-PCR densitometry) of the same compound?
Its value is 1.5 fold.

What about the “peak Arg protein levels, fold of the VEH control” value ([1]; MDA-MB-435 cells, 24 h, Western densitometry) of the same compound?
Its value is 2.9 fold.

What about the blood vessel density [2] of the same compound?
The blood vessel density was “significantly reduce blood vessel density”.

What about the FOXO1 nuclear localization ([3]; 40 μM α-TEA for 24 h) of the same compound?
Its FOXO1 nuclear localization is “increase in FOXO1 levels in the nucleus”.

What about the phospho-FOXO1 levels ([3]; 40 μM α-TEA, 3-24 h, total protein unchanged) of the same compound?
Its phospho-FOXO1 levels is “reduced in a time-dependent manner”.
